Results taken from ChEMBL document CHEMBL4316596, “Antimicrobial Peptides with High Proteolytic Resistance for Combating Gram-Negative Bacteria” (J Med Chem, 2019).

Tests used:
[1] = test system: Salmonella typhimurium; test: Antimicrobial activity against Salmonella typhimurium C7731 after 24 hrs by NCCLS-protocol based assay; assay type: functional; conditions: Salmonella enterica subsp. enterica serovar Typhimurium
[2] = test system: Pseudomonas aeruginosa; test: Antimicrobial activity against Pseudomonas aeruginosa ATCC 27853 after 24 hrs by NCCLS-protocol based assay; assay type: functional
[3] = test system: Pseudomonas aeruginosa; test: Bactericidal activity against Pseudomonas aeruginosa 26305 clinical isolates incubated for 4 hrs followed by culture spread on agar plates and cultured overnight; assay type: functional
[4] = test system: Pseudomonas aeruginosa; test: Bactericidal activity against Pseudomonas aeruginosa PAO1 incubated for 4 hrs followed by culture spread on agar plates and cultured overnight; assay type: functional
[5] = test system: Acinetobacter baumannii; test: Bactericidal activity against Acinetobacter baumannii incubated for 4 hrs followed by culture spread on agar plates and cultured overnight; assay type: functional
[6] = test system: Escherichia coli; test: Antimicrobial activity against Escherichia coli K88 after 24 hrs by NCCLS-protocol based assay; assay type: functional
[7] = test system: Pseudomonas aeruginosa; test: Bactericidal activity against Pseudomonas aeruginosa CICC 21625 clinical isolates incubated for 4 hrs followed by culture spread on agar plates and cultured overnight; assay type: functional
[8] = test system: Escherichia coli; test: Bactericidal activity against Escherichia coli K99 incubated for 4 hrs followed by culture spread on agar plates and cultured overnight; assay type: functional
[9] = test system: Pseudomonas aeruginosa; test: Bactericidal activity against Pseudomonas aeruginosa ATCC 27853 incubated for 4 hrs followed by culture spread on agar plates and cultured overnight; assay type: functional
[10] = test system: Escherichia coli; test: Antimicrobial activity against Escherichia coli 078 after 24 hrs by NCCLS-protocol based assay; assay type: functional
[11] = test system: Escherichia coli; test: Bactericidal activity against Escherichia coli 078 incubated for 4 hrs followed by culture spread on agar plates and cultured overnight; assay type: functional
[12] = test system: Escherichia coli; test: Antimicrobial activity against Escherichia coli K99 after 24 hrs by NCCLS-protocol based assay; assay type: functional
[13] = test system: Pseudomonas aeruginosa; test: Antimicrobial activity against Pseudomonas aeruginosa CICC 21630 clinical isolates after 24 hrs by NCCLS-protocol based assay; assay type: functional
[14] = test system: Escherichia coli; test: Antimicrobial activity against Escherichia coli UB1005 after 24 hrs by NCCLS-protocol based assay; assay type: functional
[15] = test system: Acinetobacter baumannii; test: Antimicrobial activity against Acinetobacter baumannii after 24 hrs by NCCLS-protocol based assay; assay type: functional
[16] = test system: Pseudomonas aeruginosa; test: Antimicrobial activity against Pseudomonas aeruginosa 26305 clinical isolates after 24 hrs by NCCLS-protocol based assay; assay type: functional
[17] = test system: Escherichia coli; test: Bactericidal activity against Escherichia coli UB1005 incubated for 4 hrs followed by culture spread on agar plates and cultured overnight; assay type: functional
[18] = test system: Salmonella enterica subsp. enterica serovar Pullorum; test: Bactericidal activity against Salmonella pullorum C7913 incubated for 4 hrs followed by culture spread on agar plates and cultured overnight; assay type: functional
[19] = test system: Escherichia coli; test: Bactericidal activity against Escherichia coli ATCC 25922 incubated for 4 hrs followed by culture spread on agar plates and cultured overnight; assay type: functional
[20] = test system: Klebsiella pneumoniae; test: Bactericidal activity against Klebsiella pneumoniae incubated for 4 hrs followed by culture spread on agar plates and cultured overnight; assay type: functional
[21] = test system: Salmonella enterica subsp. enterica serovar Pullorum; test: Antimicrobial activity against Salmonella pullorum C7913 after 24 hrs by NCCLS-protocol based assay; assay type: functional
[22] = test system: Klebsiella pneumoniae; test: Antimicrobial activity against Klebsiella pneumoniae after 24 hrs by NCCLS-protocol based assay; assay type: functional
[23] = test system: Pseudomonas aeruginosa; test: Antimicrobial activity against Pseudomonas aeruginosa PAO1 after 24 hrs by NCCLS-protocol based assay; assay type: functional
[24] = test system: Salmonella typhimurium; test: Bactericidal activity against Salmonella typhimurium ATCC 14028 incubated for 4 hrs followed by culture spread on agar plates and cultured overnight; assay type: functional; conditions: Salmonella enterica subsp. enterica serovar Typhimurium
[25] = test system: Pseudomonas aeruginosa; test: Bactericidal activity against Pseudomonas aeruginosa 25349 clinical isolates incubated for 4 hrs followed by culture spread on agar plates and cultured overnight; assay type: functional
[26] = test system: Pseudomonas aeruginosa; test: Antimicrobial activity against Pseudomonas aeruginosa 25349 clinical isolates after 24 hrs by NCCLS-protocol based assay; assay type: functional
[27] = test system: Escherichia coli; test: Bactericidal activity against Escherichia coli K88 incubated for 4 hrs followed by culture spread on agar plates and cultured overnight; assay type: functional
[28] = test system: Pseudomonas aeruginosa; test: Ratio of MBC against Pseudomonas aeruginosa ATCC 27853 after 26 to 60 passages to MBC against Pseudomonas aeruginosa ATCC 27853; assay type: functional, organism-based
[29] = test system: Pseudomonas aeruginosa; test: Bactericidal activity against Pseudomonas aeruginosa CICC 21630 clinical isolates incubated for 4 hrs followed by culture spread on agar plates and cultured overnight; assay type: functional
[30] = test system: Pseudomonas aeruginosa; test: Antimicrobial activity against Pseudomonas aeruginosa CICC 21625 clinical isolates after 24 hrs by NCCLS-protocol based assay; assay type: functional
[31] = test system: Escherichia coli; test: Antimicrobial activity against Escherichia coli ATCC 25922 after 24 hrs by NCCLS-protocol based assay; assay type: functional
[32] = test system: Salmonella typhimurium; test: Bactericidal activity against Salmonella typhimurium C7731 incubated for 4 hrs followed by culture spread on agar plates and cultured overnight; assay type: functional; conditions: Salmonella enterica subsp. enterica serovar Typhimurium
[33] = test system: Salmonella typhimurium; test: Antimicrobial activity against Salmonella typhimurium ATCC 14028 after 24 hrs by NCCLS-protocol based assay; assay type: functional; conditions: Salmonella enterica subsp. enterica serovar Typhimurium

GENTAMICIN
0.125 µM: MIC>95 [6]
> 64 µM: MBC>99.9 [3] | MIC>95 [16]
2 µM: MBC>99.9 [4] | MBC>99.9 [19] | MIC>95 [23] | MBC>99.9 [24] | MBC>99.9 [25] | MIC>95 [26] | MBC>99.9 [29] | MBC>99.9 [32]
32: Ratio [28]
1 µM: MIC>95 [1] | MIC>95 [2] | MBC>99.9 [7] | MBC>99.9 [9] | MIC>95 [13] | MBC>99.9 [18] | MIC>95 [21] | MIC>95 [30] | MIC>95 [31] | MIC>95 [33]
0.25 µM: MBC>99.9 [8] | MIC>95 [10] | MIC>95 [12] | MIC>95 [14] | MIC>95 [15] | MBC>99.9 [17] | MBC>99.9 [27]
0.5 µM: MBC>99.9 [5] | MBC>99.9 [11] | MBC>99.9 [20] | MIC>95 [22]
